From article PMC11435220, “Anticancer Activity of Imidazolyl Gold(I/III) Compounds in Non-Small Cell Lung Cancer Cell Lines” (Pharmaceuticals, 2024)

Columns and labels:
H522 = assay: MTT viability assay, H522; format: cell-based, human; conditions: mean ± span, 48 h treatment, cell line without KRAS mutation
Procedure: (§1) NSCLC cell lines were obtained from the Hamon Center for Therapeutic Oncology Research (UT Southwestern Medical Center). IMR-90 human lung fibroblasts were from ATCC (CC-186). All cell lines were maintained and treated in RPMI medium (Cytiva (Shanghai, China), #SH30027), supplemented with 10% heat-inactivated FBS (Millipore Sigma (Darmstadt, Germany), F0394).
(§2) 5000–10,000 cells/0.1 mL/well were seeded in 96-well plates to achieve 70% confluence after 24 h. All drug stock solutions were prepared fresh in DMSO at a concentration of 10 mM. The day after cell plating, we added 0.1 mL of medium containing the appropriate drug dilutions. After 48 h of treatment, 10 μL of MTT solution (5 mg/mL) was added to each well. After 4 h incubation, the medium was aspirated, and the formazan salts dissolved in 200 μL DMSO/well for 10 min at 37 °C. The absorbance was read at 570 nm (OD 570 nm). Data are represented as mean ± SD of two independent experiments.
(§3) Statistical and data analysis was performed using GraphPad Prism (v10). IC50 values were calculated using a three-parameter non-linear regression model with log(inhibitor) vs. response. For the TxrR activity statistics, the groups were compared using a two-way ANOVA followed by Dunnett’s multiple comparisons with alpha = 0.05. The correlation between IC50 values and TxrR activity was achieved using Pearson correlation with alpha = 0.05.

H661 = assay: MTT viability assay, H661; format: cell-based, human; conditions: mean ± span, 48 h treatment, cell line without KRAS mutation
Procedure: as §1, §2, §3

H1395 = assay: MTT viability assay, H1395; format: cell-based, human; conditions: mean ± span, 48 h treatment, cell line without KRAS mutation
Procedure: as §1, §2, §3

H1993 = assay: MTT viability assay, H1993; format: cell-based, human; conditions: mean ± span, 48 h treatment, cell line without KRAS mutation
Procedure: as §1, §2, §3

A549 = assay: MTT viability assay, A549; format: cell-based, human; conditions: mean ± span, 48 h treatment, cell line with KRAS mutation
Procedure: as §1, §2, §3

H460 = assay: MTT viability assay, H460; format: cell-based, human; conditions: mean ± span, 48 h treatment, cell line with KRAS mutation
Procedure: as §1, §2, §3

H1792 = assay: MTT viability assay, H1792; format: cell-based, human; conditions: mean ± span, 48 h treatment, cell line with KRAS mutation
Procedure: as §1, §2, §3

HCC-44 = assay: MTT viability assay, HCC-44; format: cell-based, human; conditions: mean ± span, 48 h treatment, cell line with KRAS mutation
Procedure: as §1, §2, §3

H1355 = assay: MTT viability assay, H1355; format: cell-based, human; conditions: mean ± span, 48 h treatment, cell line with KRAS mutation
Procedure: as §1, §2, §3

[1] = tested on: human NSCLC cell lines without KRAS mutations; assay: MTT assay, average across NSCLC cell lines without KRAS mutations; format: cell-based; conditions: average across cell lines without KRAS mutations (H522, H661, H1395, H1993), 48 h, read-out: IC50 * averaged values
Procedure: as §1, §2, §3

[2] = tested on: human NSCLC cell lines with KRAS mutations; assay: MTT assay, average across NSCLC cell lines with KRAS mutations; format: cell-based; conditions: 48 h, read-out: IC50 * averaged values
Procedure: as §1, §2, §3

[3] = tested on: TrxR in H522 cell lysates; assay: Thioredoxin reductase activity in lysates of treated H522 cells; format: cell-based, human; conditions: for TrxR activity reduction / inhibition: H522, 24 h treatment, stated for both cell lines; for Mean Diff. TrxR activity vs. veh: H522 lysate, 24 h treatment at 5 μM
Procedure: (§4) The enzymatic activity of TrxR in the A549 and H522 cell lysates was measured using the TrxR assay Kit (Abcam ab83463) following the manufacturer’s instructions. This kit is based on the TxrR-mediated reduction of the colorless DTNB into TNB2—(yellow). Briefly, cells were plated to reach 70% confluence on a 100-mm dish in one day. They were treated with 5 μM of the gold compounds or the equivalent quantity of DMSO for 24 h. Then, cells were washed in PBS 1X, detached, and lysed in 100 μL of cold TrxR assay buffer supplemented with the Proteinase Inhibitor Cocktail. 20 μg and 40 μg of total proteins were used for the A549 and the H522, respectively. The DTNB substrate was added to samples with or without TrxR inhibitor (provided with the kit) in 96-well plates. The OD412 was measured soon after the substrate addition (A1) and then after 25, 60, 90, and 110 min (An) at 25 °C using a FLUOstar Omega Microplate Reader (BGM Labtech, Chicago, IL, USA). Data analysis was performed following the manufacturer’s instructions. The OD of TNB2, generated by TrxR in every condition, is:ΔA412 nm = (AnAB − AnINH) − (AB − A1INH) where AB is the assay buffer, and INH is the inhibitor. The TrxR activity is:(2) ΔB/Tn−T1×mg of protein lysate×sample dilution factor=(nmol/min)/mg=mU/mg where ΔB is the TNB amount calculated applying ΔA412 nm to TNB standard curve (in nmol), T1 is the time of the first reading (A1AB, and A1INH) (in min), Tn is the time of the second reading (AnAB and AnINH) (in min). The residual TxrR activity (%) was calculated by normalizing the TxrR activity for each compound with the matching vehicle values at every n time point.
as §3

[4] = tested on: TrxR in A549 cell lysates; assay: Thioredoxin reductase activity in lysates of treated A549 cells; format: cell-based, human; conditions: for TrxR activity reduction / inhibition: A549, 24 h treatment, stated for both cell lines; for Mean Diff. TrxR activity vs. veh: A549 lysate, 24 h treatment at 5 μM
Procedure: as §4, §3

[5] = Solution stability by UV-visible spectra over time; format: physicochemical; conditions: for percent concentration reduction estimated from UV spectra: 100 µM solution, within an hour; for stability in solution: UV-visible spectra over time, DMSO, methanol, PBS buffered solutions
Procedure: Stability studies were led by acquiring UV−visible spectra of 100 µM DMSO or methanol solutions of compounds 1∓8 over time (Figures S19–S29 in Supplementary Materials). […] The stability of NHC-AuX3 complexes (with X = Cl, compounds 1 and 2, with X = Br, compounds 5 and 6) was affected by the nature of both the substituents on the imidazolyl ligand and of the halide, showing a small decrease of the UV bands maxima in an hour. By analyzing the spectral data of compounds 1 and 2, a percent concentration reduction of about 4–5% was estimated within an hour, grading them eligible for biological tests. The partial instability may be attributed to the formation of cationic bis-carbeneAuCl2 species (Equation (1)), with the [bis-carbeneAuX2]^+ and the respective AuX2^−; these ions were actually detected as positive and negative ions in the ESI-MS spectra (see Figures S12 and S13). […] Additionally, the (+)ESI MS spectrum of the acetonitrile solution of compound 6 is particularly rich in positive ions (Figure S16). As concerns the mono-/bis-carbene formation, it is likely initiated by the large trans effect of the carbene ligands, which induces the chemical lability on the trans halide, triggers […], the formation of bis-carbeneAu(III) species, and AuX2^− or AuX4^− anions:2[NHC-AuX3] ⇔ [[(NHC)2AuX2] [AuX2^−] + 2X(1) […]
The stability of the samples 1-8 in DMSO solution was assayed by UV-visible spectroscopy. Spectra were acquired using the Shimadzu UV-2700i spectrophotometer, equipped with the Shimadzu CPS-100 Peltier, at 293 K. Unless diversely specified, 100 µM DMSO solutions of the 1-8 compounds were prepared and spectra were acquired each 10 minutes for a total of 60 minutes. The spectra obtained are reported as following.
Figure S19. UV-Visible Spectra acquired for complex 1.
Figure S20. UV-Visible Spectra acquired for complex 2. […]

Row | Compound | IC50 (H522) [µM] | IC50 (H661) [µM] | IC50 (H1395) [µM] | IC50 (H1993) [µM] | IC50 (A549) [µM] | IC50 (H460) [µM] | IC50 (H1792) [µM] | IC50 (HCC-44) [µM] | IC50 (H1355) [µM] | IC50 [1] [µM] | IC50 [2] [µM] | TrxR activity reduction / inhibition [3] | Mean Diff. TrxR activity vs. veh ([3]; reading at 25 min) [%] | Mean Diff. TrxR activity vs. veh ([3]; reading at 60 min) [%] | Mean Diff. TrxR activity vs. veh ([3]; reading at 90 min) [%] | Mean Diff. TrxR activity vs. veh ([3]; reading at 110 min) [%] | Mean Diff. TrxR activity vs. veh ([4]; reading at 25 min) [%] | Mean Diff. TrxR activity vs. veh ([4]; reading at 60 min) [%] | Mean Diff. TrxR activity vs. veh ([4]; reading at 90 min) [%] | Mean Diff. TrxR activity vs. veh ([4]; reading at 110 min) [%] | other results
1 | Cn1cc[n+](C)[c]1[Au-]([Cl])([Cl])[Cl] [Compound 1] | 75 ± 0.89 | 47 ± 1.1 | 47 ± 0.4 | 37 ± 1.3 | > 100 | 52 ± 1.2 | 60 ± 1.4 | 45 ± 0.25 | 41 ± 0.33 | 52 | 62 | 20–30% | 15.84 | −8.894 | −20.1 | −23.89 | −16.73 | −13.1 | −26.55 | −32.38 | TrxR activity reduction / inhibition [4]: 20–30%; percent concentration reduction estimated from UV spectra [5]: 4–5%
2 | C[n+]1ccn(Cc2ccccc2)[c]1[Au-]([Cl])([Cl])[Cl] [Compound 2] | 53 ± 2.1 | 45 ± 1.7 | 17 ± 0.8 | 6.1 ± 0.76 | 56 ± 1.6 | 65 ± 2.2 | 24 ± 0.98 | 26 ± 1.3 | 34 ± 1.4 | 30 | 41 | 20–30% | 3.864 | −19.16 | −23.38 | −31.46 | −5.148 | −11.64 | −22.67 | −30.44 | TrxR activity reduction / inhibition [4]: 20–30%; percent concentration reduction estimated from UV spectra [5]: 4–5%
3 | C[n+]1ccn(Cc2ccccc2)[c]1[Au-][Br] [Compound 4] | 5.3 ± 0.88 | 7 ± 0.81 | 11 ± 0.88 | 12 ± 1.03 | 19 ± 1 | 11 ± 1.2 | 16 ± 0.94 | 14 ± 1.1 | 8.1 ± 0.66 | 9 | 14 | – | 23.18 | 7.116 | −0.3654 | −18.72 | −3.861 | −2.183 | −18.13 | −21.37 | –
4 | Cn1cc[n+](C)[c]1[Au-]([Br])([Br])[Br] [Compound 5] | 52 ± 0.37 | 42 ± 1.7 | 49 ± 0.11 | 70 ± 1.6 | 49 ± 0.33 | > 100 | > 100 | 32 ± 1.6 | 12 ± 0.72 | 53 | 59 | 30–40% | −35.55 | −39.68 | −41.1 | −45.26 | −11.58 | −29.11 | −31.74 | −33.68 | TrxR activity reduction / inhibition [4]: 30–40%; stability in solution [5]: least stable in solution
5 | C[n+]1ccn(Cc2ccccc2)[c]1[Au-]([Br])([Br])[Br] [Compound 6] | 55 ± 1.9 | 26 ± 1.5 | 62 ± 2.4 | 5.6 ± 0.76 | 13 ± 1.03 | 37 ± 1.8 | 15 ± 1.1 | 19 ± 1.4 | 59 ± 1.7 | 37 | 29 | 30–40% | −31.68 | −37.22 | −39.82 | −46.06 | −17.37 | −2.183 | −31.09 | −38.86 | TrxR activity reduction / inhibition [4]: 30–40%; stability in solution [5]: least stable in solution
6 | [bis-(1,3-dimethyl-imidazoly-2yl)]gold(I) dibromoaurate [Compound 3] | 15 ± 1.1 | 27 ± 1.2 | 11 ± 0.63 | 11 ± 0.96 | 91 ± 1.03 | 68 ± 0.1 | 50 ± 1.2 | 10 ± 1.1 | 9.1 ± 1.03 | 16 | 46 | – | −44.05 | −47.07 | −47.31 | −50.17 | −21.88 | −4.221 | −8.42 | −9.068 | –
